Experimental findings from patent US20090036512A1, “FUNGICIDAL ACTIVE COMPOUND COMBINATION” (priority 2005, published 2009) are described below.

In this assay the test system is Leptosphaeria nodorum. Briefly: Leptosphaeria nodorum test (wheat)/protective. The assay is classed as in vivo. The note with it: Parastagonospora nodorum, 240 h, protective, evaluation 10 days after inoculation. The procedure:
Leptosphaeria nodorum test (wheat)/protective Solvent: 50 parts by weight of N,N-dimethylacetamide Emulsifier: 1 part by weight of alkylaryl polyglycol ether To prepare a suitable preparation of active compound, 1 part by weight of active compound or active compound combination is mixed with the stated amounts of solvents and emulsifier, and the concentrate is diluted with water to the desired concentration, or a commercial formulation of active compound or active compound combination with water is diluted with water to the desired concentration. To test for protective activity, young plants are sprayed with the active compound preparation at the stated application rate. After the spray coating has dried on, the plants are sprayed with a spore suspension of Leptosphaeria nodorum. The plants remain in an incubation cabin at 20° C. and 100% relative atmospheric humidity for 48 hours. The plants are placed in a greenhouse at a temperature of about 20° C. and a relative atmospheric humidity of 80%. Evaluation is carried out 10 days after inoculation. Here, 0% means an efficacy which corresponds to that of the control, whereas an efficacy of 100% means that no infection is observed.

For the compound `O=C1C2CC=CCC2C(=O)N1SC(Cl)(Cl)Cl` (stereo not shown) [Captan, 3a,4,7,7a-tetrahydro-2-[(trichloromethyl)thio]-1H-isoindole-1,3(2H)-dione], for the setting “application rate 82.5 ppm, read-out: % efficacy (converted)”, the Emax at 82.5 ppm is 50%. In addition, where the note is “application rate 375 ppm, read-out: % efficacy”, the Emax at 375 ppm worked out at 25%. Besides, the Emax at 500 ppm (application rate 500 ppm, read-out: % efficacy) was found to be 25%.
Turning to `CON=C(C(=O)OC)c1ccccc1CO/N=C(\C)c1cccc(C(F)(F)F)c1` [Trifloxystrobin, 2-[α-{[(α-methyl-3-trifluoromethyl-benzyl)imino]-oxy}-o-tolyl]-glyoxylic acid methyl ester O-methyloxime], the Emax at 25 ppm (application rate 25 ppm, read-out: % efficacy) was determined as 50%.
